The values that follow come from the METLIN SMRT retention time set (Domingo-Almenara et al. 2019).

The series is described as follows: gradient 5% acetonitrile 3 min, to 50% in 2 min, to 85% in 15 min, held 3 min, 100 µL/min. As to conditions: column: Zorbax Extend-C18 2.1 x 50 mm; eluents: water / acetonitrile, 0.1% formic acid. The gist of the method: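 Over 3 months, pure standards in mixtures of ~100 molecules were run by HPLC coupled to a quadrupole time-of-flight mass spectrometer in positive and negative ionization mode. The column was a Zorbax Extend-C18 (2.1 × 50 mm, 1.8 μm) at 100 μL/min, eluted with water and acetonitrile each holding 0.1% formic acid, with 40 μL dead and 900 μL dwell volumes. Retention time was determined from adduct peaks chosen by software and checked manually.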
`Cc1nc(-c2ccccc2)cc2nn(CC(=O)NC(C)CCc3ccccc3)c(=O)n12` (stereo not given) registered an RP-LC retention time of 989 s.

For `CCc1noc(NC(C)=O)c1-c1ccc(C)c(S(=O)(=O)N2CCc3ccccc32)c1`, the RP-LC retention time turned out to be 920 s.

Compound `Cc1cc(C(=O)N2C[C@@H](CO)[C@H](c3nc(C4CC4)no3)C2)c(C)o1` displayed an RP-LC retention time of 706 s.

With `COc1ccccc1NC(=O)NCC(c1cccnc1)c1c[nH]c2ccccc12` (stereo not given), the RP-LC retention time was determined as 657 s.

`O=C(NCCCn1ccnc1)C(=O)NCCC1=CCCCC1` had an RP-LC retention time of 571 s.

The compound `O=C1NC(C(=O)Nc2cccc(Cl)c2)Cn2cccc21` (stereo not given) yielded an RP-LC retention time of 721 s.

Regarding `CCc1nc(-c2csc(S(=O)(=O)N3CCC(C(=O)NCc4cccs4)CC3)c2)no1`, the RP-LC retention time came out at 860 s.

Compound `CC(C)CC(=O)N1CCC(COc2ccc(C(=O)NC3CC3)cc2)CC1` registered an RP-LC retention time of 758 s.

Compound `Cc1cc(NC(=O)C2CCN(C(=O)c3snnc3C)CC2)no1` yielded an RP-LC retention time of 618 s.

Turning to `Cn1ncc2c(N3CCSCC3)nc(C(=O)NCCc3cccnc3)nc21`, the RP-LC retention time came out at 575 s.

`COc1ccccc1NCC(O)Cn1ccc2ccccc21` (stereo not given): the RP-LC retention time was found to be 871 s.

Compound `CC1(C)CC(=O)c2cn(-c3ccc(F)cc3)c(=O)c(C(=O)NC3CC3)c2C1` showed an RP-LC retention time of 814 s.

The compound `O=C(O)c1ccc(OCC(=O)C2CC2)cc1` returned an RP-LC retention time of 636 s.

The compound `Cc1nc(-c2csc(S(=O)(=O)N3CCC(C(=O)Nc4ccc5c(c4)OCCO5)CC3)c2)no1` registered an RP-LC retention time of 868 s.

`Cc1ccc(-c2nc(-c3ccc(-n4cccn4)nc3)no2)cc1` returned an RP-LC retention time of 1330 s.

The compound `Cc1ccc(-c2noc(-c3nn(CC(=O)NC4CCC(C)CC4)c4ccccc34)n2)cc1` (stereo not given) registered an RP-LC retention time of 1300 s.

With `O=C(c1cccs1)N1CCCC(c2nncn2-c2ccccc2)C1` (stereo not given), the RP-LC retention time came to 688 s.

The compound `Cc1ccc(S(=O)(=O)N2CCN(c3cnn4c(C)nnc4c3)CC2)cc1` displayed an RP-LC retention time of 679 s.

`COc1cc([C@@H]2c3cc4c(cc3[C@H](O)[C@@H](CO)[C@@H]2C(=O)NCc2ccc3c(c2)OCO3)OCO4)cc(OC)c1OC` had an RP-LC retention time of 709 s.

`COC(=O)c1ccc2c(=O)n(Cc3cccc(OC)c3)c(N3CCN(c4ccccn4)CC3)nc2c1` had an RP-LC retention time of 741 s.

`CC(=O)N1c2ccc(S(=O)(=O)N3CCCC3)cc2CC1C(=O)NCCN(C)Cc1ccccc1` (stereo not given) showed an RP-LC retention time of 619 s.

Regarding `CNC(=O)[C@@H]1C[C@H](Oc2ccccc2)CN1S(=O)(=O)N(C)C`, the RP-LC retention time was found to be 702 s.

Turning to `Cc1ccc(-n2c(=O)n(CC(=O)NCCCN3CCOCC3)c3cccnc32)cc1`, the RP-LC retention time came to 591 s.

As for `CNC(=O)C1CCCN(S(C)(=O)=O)CCC(=O)NCC1` (stereo not given), the RP-LC retention time was 539 s.

`COc1cc(OC)c(NC(=O)N(C)CCc2noc(-c3ccc(F)cc3)n2)cc1Cl` showed an RP-LC retention time of 943 s.

Compound `CCCn1nc(C)cc1CN(C)C(=O)c1cn2ccccc2n1` gave an RP-LC retention time of 591 s.

For `Cc1nc(-c2cn(C)c3ncccc23)sc1C(=O)Nc1ccccc1F`, the RP-LC retention time turned out to be 922 s.

In the case of `Cc1ccc(CNC(=O)Cn2cnc3nc(N4CCC(C(=O)NC5CC5)CC4)sc3c2=O)cc1`, the RP-LC retention time was determined as 708 s.

In turn, `CC(=O)N1CCc2cc(N3CC(C(=O)NCc4cccc(C)c4)CC3=O)ccc21` (stereo not given) showed an RP-LC retention time of 693 s.

Take `Cc1ccc(NC(=O)C2CC(=O)N(CCc3c[nH]c4ccc(F)cc34)C2)cc1C` (stereo not given): the RP-LC retention time amounted to 867 s.

The compound `CCn1cc(C)c(C(=O)O)c1CC(=O)N1CCCCCC1` yielded an RP-LC retention time of 720 s.

Consider `COc1cccc(N2CCN(c3ccnc(SCC(=O)Nc4ccc5c(c4)OCO5)n3)CC2)c1`, for which the RP-LC retention time worked out at 728 s.

The compound `CCc1nn2c(CNC(=O)C3CCC3)c(-c3ccccc3)nc2s1` registered an RP-LC retention time of 804 s.

Take `Cn1nc(-c2nc(-c3ccc(F)cc3)no2)c2c1CCN(C(=O)NC1CCCC1)C2`: the RP-LC retention time amounted to 771 s.

In turn, `COc1ccc(NC(=O)N2CCN(c3cc(C)nc(N4CCOCC4)n3)CC2)c(OC)c1` displayed an RP-LC retention time of 589 s.

`CC(NC(=O)c1ccncc1)C(=O)Nc1nc2ccccc2[nH]1` (stereo not given) came in with an RP-LC retention time of 566 s.

In turn, `CCc1ccc(NS(=O)(=O)c2cc(-c3c(CC)noc3NC(C)=O)ccc2C)cc1` showed an RP-LC retention time of 886 s.

`CC(C)c1noc(-c2ccnc(-n3cnc(C(=O)NCc4ccccc4)c3)c2)n1` returned an RP-LC retention time of 939 s.

As for `Cc1ccccc1S(=O)(=O)N1CC[C@@H]2CN(Cc3cccnc3)[C@@H]2C1`, the RP-LC retention time worked out at 598 s.

Consider `O=C(c1ccc(Br)o1)N1CCN(c2ccc(=O)n(-c3cccc(Cl)c3)n2)CC1`, for which the RP-LC retention time was 878 s.

`CC(C)NC(=O)N1CC[C@H](n2c(=O)n(C)c3cccnc32)C1` gave an RP-LC retention time of 632 s.

For `Cn1cc(C(=O)NCCCc2ccccc2)c(S(=O)(=O)N2CCSCC2)n1`, the RP-LC retention time came to 944 s.

As to `COc1ccc(-c2nc3ncccn3c2NCc2ccccc2)cc1`, the RP-LC retention time came out at 717 s.

Turning to `Cc1c(Cl)cccc1S(=O)(=O)NC1CCN(c2ccccc2)C1=O` (stereo not given), the RP-LC retention time was 970 s.

With `CCOc1ccc(C2Cn3nnc(-c4nc(-c5cccc(F)c5)no4)c3CO2)cc1` (stereo not given), the RP-LC retention time is 1220 s.

Consider `CCc1ccc(Oc2cc(N3CCC(C(=O)NCCc4cccs4)CC3)ncn2)cc1`, for which the RP-LC retention time is 851 s.

On to `O=C(C1CCCN(c2nnc(-n3cccc3)s2)C1)N1CCN(Cc2ccccc2)CC1` (stereo not given), for which the RP-LC retention time came to 661 s.

The compound `COC(=O)c1scc(-c2ccc(C)cc2)c1S(=O)(=O)N1CCC(C(N)=O)CC1` yielded an RP-LC retention time of 798 s.

Take `COc1ccc(OC)c2sc(NC(=O)c3ccc(S(=O)(=O)N4CCCC4)cc3)nc12`: the RP-LC retention time came out at 872 s.

The compound `COC(=O)c1cc(OCC(=O)Nc2ccc(F)cc2)c2cc(OC)ccc2n1` had an RP-LC retention time of 810 s.

Consider `COC(=O)[C@H](Cc1cccc(C(=N)N)c1)[C@@H](C)NC(=O)c1ccc(-c2cc[n+]([O-])cc2)cc1`, for which the RP-LC retention time amounted to 610 s.

In the case of `O=C(O)c1cc(N2CCCN(c3ncccn3)CC2)ccc1NC(=O)C1CC1`, the RP-LC retention time is 702 s.

`COc1cccc(-c2nc(-c3ccc4c(c3)nnn4CCN(C)C)no2)c1` displayed an RP-LC retention time of 595 s.

In the case of `N#CCN(c1ccc2c(c1)OCCO2)S(=O)(=O)c1ccc2nncn2c1`, the RP-LC retention time amounted to 690 s.

Compound `Cn1nnc2ccc(-c3noc(-c4ccc(F)cc4)n3)cc21` returned an RP-LC retention time of 981 s.

`CCn1cc(CCN2CCC(C(=O)N3CCOCC3)CC2)c2cccnc21` yielded an RP-LC retention time of 566 s.

For `Cc1cc2c(cc1S(=O)(=O)N1CCCC1C(=O)NC1CCCCCCC1)OC(C)C(=O)N2` (stereo not given), the RP-LC retention time stood at 857 s.

In turn, `Cc1noc([C@@H]2CN(Cc3ccc(OC(F)(F)F)cc3)C[C@H]2CO)n1` gave an RP-LC retention time of 643 s.

Compound `Cc1ccc(NC(=O)N(C)CCc2noc(COc3ccccc3)n2)cc1` had an RP-LC retention time of 892 s.

Regarding `Cc1cc(OCC(=O)N2CCC(C)CC2)nc(-c2ccc(Cl)cc2)n1`, the RP-LC retention time came out at 1150 s.

`CN(C)CCNC(=O)CN1C(=O)C2CCCCN2c2ccc(C(=O)N3CCCCC3)cc21` (stereo not given): the RP-LC retention time was determined as 619 s.

`Cn1ncc2c(N3CCSCC3)nc(C(=O)N3CCOCC3)nc21` gave an RP-LC retention time of 635 s.

Compound `Cc1ccc(CNC(=O)N2CCC3(CC2)NC(=O)c2cccc(Cl)c2N3)cc1` returned an RP-LC retention time of 773 s.

For `O=C(c1ccc(-c2cccs2)nc1)N1CCCCCC1`, the RP-LC retention time came to 878 s.

`COc1cc(N)c(Cl)cc1C(=O)NC1CN2CCC1CC2` (stereo not given) had an RP-LC retention time of 615 s.

Compound `O=C(NCc1cccnc1)c1ccc(-c2cccs2)nc1` had an RP-LC retention time of 586 s.

Turning to `O=C(c1ccc(F)cc1F)N1CCN(c2cc(-c3ccc(F)cc3)[nH]n2)CC1`, the RP-LC retention time came to 736 s.

In turn, `CC1(C(=O)NCc2cccc(Br)c2)Oc2cccnc2NC1=O` (stereo not given) gave an RP-LC retention time of 730 s.

As to `COCCN1C(=O)c2ccccc2C(C(=O)N2CCN(Cc3ccccc3)CC2)C1c1cccs1` (stereo not given), the RP-LC retention time worked out at 661 s.

In turn, `O=C(Cn1ccn2nc(-c3ccc(F)cc3)c(CO)c2c1=O)NCCC1=CCCCC1` had an RP-LC retention time of 900 s.

On to `COc1cccc(Nc2n[nH]nc2C(=O)Nc2ccccc2Br)c1`, for which the RP-LC retention time stood at 1060 s.

The compound `COc1cc(O)ccc1-c1nc2cc(C)ccn2c1Nc1ccccc1C` came in with an RP-LC retention time of 673 s.

For `COc1ccc2c(C)c(CCC(=O)N3CCC(C(N)=O)CC3)c(=O)oc2c1`, the RP-LC retention time was 645 s.

As for `CCc1ccccc1NC(=O)Nc1ccc2nnc(C)n2c1`, the RP-LC retention time is 712 s.

On to `Cc1ccc(-c2nnc(Cc3nc(-c4cccs4)no3)o2)cc1F`, for which the RP-LC retention time turned out to be 1010 s.

For the compound `Cc1nc2ncnn2c(N2CCC(C)CC2)c1C`, the RP-LC retention time was found to be 1020 s.

On to `CCOC(=O)c1csc(NC(=O)Nc2cccc(Cl)c2)n1`, for which the RP-LC retention time was 867 s.

For `COc1cc(C(=O)N2CCC3(CC2)NC(=O)c2cc(C)ccc2N3C)cc(OC)c1OC`, the RP-LC retention time came to 730 s.

The compound `O=C(c1cnccn1)N1CCC2(CC1)CC(OCC1CC1)CCO2` (stereo not given) had an RP-LC retention time of 694 s.

`COc1ccc(S(=O)(=O)Nc2ccc(-c3cn4ccc(C)nc4n3)cc2)cc1OC` displayed an RP-LC retention time of 627 s.
